Measured values as given in ChEMBL document CHEMBL3751819, “Navigating into the chemical space between MGCD0103 and SAHA: novel histone deacetylase inhibitors as a promising lead” (Medchemcomm, 2015).
Activity calls are given as the source filed them. The calls are words filed in the database; no cut-off is given here.

Legend:
[1] = Half life in artificial intestinal fluid; assay type: ADME
HeLa [2] = assay: Antiproliferative activity against human HeLa cells assessed as reduction in cell viability after 72 hrs by MTT assay; assay type: functional, cell-based
HeLa [3] = assay: Antiproliferative activity against human HeLa cells assessed as reduction in cell viability after 48 hrs by MTT assay; assay type: functional, cell-based
HeLa [4] = assay: Induction of cell cycle arrest in human HeLa cells assessed as accumulation at G0/G1 phase at 0.5 uM after 24 hrs by propidium iodide staining based flow cytometry (reference value: 0.5 to 0.52%); assay type: functional
HeLa [5] = assay: Induction of cell cycle arrest in human HeLa cells assessed as accumulation at S phase at 1 uM after 24 hrs by propidium iodide staining based flow cytometry (reference value: 0.12 to 0.13%); assay type: functional
[6] = target: T1, Protein deacetylase HDAC6 (Homo sapiens) (UniProt Q9UBN7); assay: Inhibition of HDAC6 in human A549 cells assessed as increase in acetylated tubulin expression at 5 uM incubated for 12 hrs by DAPI staining based immunofluorescence microscopy; assay type: cell-based
T1 sequence (whole entry): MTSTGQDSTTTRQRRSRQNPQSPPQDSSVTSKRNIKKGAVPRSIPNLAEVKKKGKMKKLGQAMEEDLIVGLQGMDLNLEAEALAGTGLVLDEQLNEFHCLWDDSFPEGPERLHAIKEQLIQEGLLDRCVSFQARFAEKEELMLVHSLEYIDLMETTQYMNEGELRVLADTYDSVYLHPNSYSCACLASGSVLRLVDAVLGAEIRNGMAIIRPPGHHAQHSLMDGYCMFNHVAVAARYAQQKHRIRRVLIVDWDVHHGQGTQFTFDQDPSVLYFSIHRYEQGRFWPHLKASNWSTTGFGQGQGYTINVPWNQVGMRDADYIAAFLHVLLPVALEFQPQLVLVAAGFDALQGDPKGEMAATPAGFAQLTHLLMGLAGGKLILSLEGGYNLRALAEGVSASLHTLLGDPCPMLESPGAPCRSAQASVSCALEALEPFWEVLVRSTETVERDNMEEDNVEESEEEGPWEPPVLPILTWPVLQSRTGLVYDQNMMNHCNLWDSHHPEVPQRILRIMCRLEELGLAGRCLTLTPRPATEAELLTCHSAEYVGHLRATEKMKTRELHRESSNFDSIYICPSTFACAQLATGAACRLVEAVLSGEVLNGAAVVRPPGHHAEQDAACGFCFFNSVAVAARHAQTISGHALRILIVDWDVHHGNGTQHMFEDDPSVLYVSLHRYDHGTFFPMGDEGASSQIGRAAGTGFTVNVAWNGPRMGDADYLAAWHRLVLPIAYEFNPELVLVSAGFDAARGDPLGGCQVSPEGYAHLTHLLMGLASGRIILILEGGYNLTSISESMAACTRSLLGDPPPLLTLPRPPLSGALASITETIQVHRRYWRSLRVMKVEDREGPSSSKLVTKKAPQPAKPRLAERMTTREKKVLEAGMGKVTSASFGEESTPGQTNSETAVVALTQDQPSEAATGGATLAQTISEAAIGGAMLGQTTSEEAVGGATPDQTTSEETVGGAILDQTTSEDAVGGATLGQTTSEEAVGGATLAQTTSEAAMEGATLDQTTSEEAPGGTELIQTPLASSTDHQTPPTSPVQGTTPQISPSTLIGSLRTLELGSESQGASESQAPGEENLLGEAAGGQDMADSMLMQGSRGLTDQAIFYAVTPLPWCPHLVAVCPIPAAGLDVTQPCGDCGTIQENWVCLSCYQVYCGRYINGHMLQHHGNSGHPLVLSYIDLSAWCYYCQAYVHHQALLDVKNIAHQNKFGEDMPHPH

HeLa [7] = assay: Induction of cell cycle arrest in human HeLa cells assessed as accumulation at S phase at 0.5 uM after 24 hrs by propidium iodide staining based flow cytometry (reference value: 0.12 to 0.13%); assay type: functional
Histone deacetylase 3 = Histone deacetylase 3 (Homo sapiens, UniProt O15379); assay: Inhibition of HDAC3 (unknown origin) using Boc-Lys(acetyl)-AMC as substrate preincubated for 5 mins followed by substrate addition by fluorescence assay
Sequence of Histone deacetylase 3 (O15379 whole entry): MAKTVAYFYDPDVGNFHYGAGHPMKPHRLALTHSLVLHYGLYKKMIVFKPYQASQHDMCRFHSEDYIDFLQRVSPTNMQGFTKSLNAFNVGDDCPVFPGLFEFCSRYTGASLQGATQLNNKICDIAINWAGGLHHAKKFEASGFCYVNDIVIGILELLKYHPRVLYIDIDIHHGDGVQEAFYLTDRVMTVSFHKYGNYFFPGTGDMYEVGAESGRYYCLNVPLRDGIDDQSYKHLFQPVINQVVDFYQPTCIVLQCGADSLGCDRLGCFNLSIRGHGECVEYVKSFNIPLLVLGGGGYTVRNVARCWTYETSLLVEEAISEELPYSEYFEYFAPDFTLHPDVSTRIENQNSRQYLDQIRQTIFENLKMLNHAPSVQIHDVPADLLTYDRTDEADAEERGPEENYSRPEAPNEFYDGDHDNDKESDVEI

HepG2 [8] = assay: Antiproliferative activity against human HepG2 cells assessed as reduction in cell viability after 48 hrs by MTT assay; assay type: functional, cell-based; details: HepG2, 48 h
HeLa [9] = assay: Induction of apoptosis in human HeLa cells assessed as viable cells at 5 uM after 48 hrs by annexin-V-FITC/propidium iodide staining based flow cytometry (reference value: 88.6%); assay type: functional; details: Homo sapiens, HeLa, 48 h; read-out: Activity
HepG2 [10] = assay: Antiproliferative activity against human HepG2 cells assessed as reduction in cell viability after 24 hrs by MTT assay; assay type: functional, cell-based; details: HepG2, 24 h
HeLa [11] = assay: Antiproliferative activity against human HeLa cells assessed as reduction in cell viability after 24 hrs by MTT assay; assay type: functional, cell-based
[12] = Antiproliferative activity against human HCT116 cells assessed as reduction in cell viability after 24 hrs by MTT assay; assay type: functional, cell-based; details: HCT-116, 24 h
HeLa [13] = assay: Induction of cell cycle arrest in human HeLa cells assessed as accumulation at G0/G1 phase at 2 uM after 24 hrs by propidium iodide staining based flow cytometry (reference value: 0.5 to 0.52%); assay type: functional
HeLa [14] = assay: Induction of cell cycle arrest in human HeLa cells assessed as accumulation at G2/M phase at 0.5 uM after 24 hrs by propidium iodide staining based flow cytometry (reference value: 0.35 to 0.37%); assay type: functional
MCF7 = assay: Antiproliferative activity against human MCF7 cells assessed as reduction in cell viability after 24 hrs by MTT assay; assay type: functional, cell-based; details: MCF7, 24 h
[15] = Half life in mouse microsomes; assay type: ADME, Microsome
A549 = assay: Antiproliferative activity against human A549 cells assessed as reduction in cell viability after 72 hrs by MTT assay; assay type: functional, cell-based; details: for IC50: A549, 72 h
HeLa [16] = assay: Induction of cell cycle arrest in human HeLa cells assessed as accumulation at G2/M phase at 2 uM after 24 hrs by propidium iodide staining based flow cytometry (reference value: 0.35 to 0.37%); assay type: functional
HeLa [17] = assay: Induction of cell cycle arrest in human HeLa cells assessed as accumulation at G0/G1 phase at 1 uM after 24 hrs by propidium iodide staining based flow cytometry (reference value: 0.5 to 0.52%); assay type: functional
HeLa [18] = assay: Induction of apoptosis in human HeLa cells assessed as viable cells at 1.25 uM after 48 hrs by annexin-V-FITC/propidium iodide staining based flow cytometry (reference value: 88.6%); assay type: functional; details: Homo sapiens, HeLa, 48 h; read-out: Activity
[19] = Antiproliferative activity against human HCT116 cells assessed as reduction in cell viability after 72 hrs by MTT assay; assay type: functional, cell-based; details: HCT-116, 72 h
HeLa [20] = assay: Induction of apoptosis in human HeLa cells assessed as late apoptotic cells at 2.5 uM after 48 hrs by annexin-V-FITC/propidium iodide staining based flow cytometry (reference value: 9.3%); assay type: functional
HeLa [21] = assay: Induction of apoptosis in human HeLa cells assessed as necrotic cells at 5 uM after 48 hrs by annexin-V-FITC/propidium iodide staining based flow cytometry (reference value: 0.693%); assay type: functional

SMILES	half-life [1] [h]	IC50 (HeLa [2]) [µM]	IC50 (HeLa [3]) [µM]	Activity (HeLa [4]) [%]	Activity (HeLa [5]) [%]	inhibition [6]	Activity (HeLa [7]) [%]	IC50 (Histone deacetylase 3) [µM]	IC50 (HepG2 [8]) [µM]	viability at 5 µM (HeLa [9]) [%]	IC50 (HepG2 [10]) [µM]	IC50 (HeLa [11]) [µM]	IC50 [12] [µM]	Activity (HeLa [13]) [%]	Activity (HeLa [14]) [%]	IC50 (MCF7) [µM]	half-life [15] [h]	Activity (A549)	IC50 (A549) [µM]	Activity (HeLa [16]) [%]	further results
O=C(NO)c1ccc(CNc2nccc(-c3cccnc3)n2)cc1	> 24	3.17	7.23	0.56	0.03	Active	0.13	0.102	4.03	76.7	22.9	30.7	13.7	0.93	0.31	46	2.87	Dose-dependent effect	4.64	0.04	Activity (HeLa [17]): 0.66%; viability at 1.25 µM (HeLa [18]): 79.3%; IC50 [19]: 1.66 µM; Activity (HeLa [20]): 11.9%; Activity (HeLa [21]): 0.536%
O=C(/C=C/c1ccc(CNc2nccc(-c3cccnc3)n2)cc1)NO	> 24	3.24	3.79	0.58	0.05	Active	0.13	0.113	5.95	76.5	20.5	53.4	8.28	0.87	0.3	46	2.5	Dose-dependent effect	7.99	0.09	Activity (HeLa [17]): 0.64%; viability at 1.25 µM (HeLa [18]): 82.6%; IC50 [19]: 1.05 µM; Activity (HeLa [20]): 13.2%; Activity (HeLa [21]): 0.858%
